Laboratory results from patent publication US10233191B2, “Fused piperidine amides as modulators of ion channels” (Vertex Pharmaceuticals Incorporated, priority 2013, dated 2019).

molecular target: T1, NaV 1.7 (Homo sapiens, UniProt Q15858); assay: E-VIPR optical membrane potential assay with electrical stimulation; assay type: cell-based; conditions: active against one or more sodium channels; assay/subtype not specified in Table 4; read-out: IC50 Binned Activity Data
T1 construct: expressed in transfected cells; host or cells: HEK cells
Text: E-VIPR Optical Membrane Potential Assay Method with Electrical Stimulation
Sodium channels are voltage-dependent proteins that can be activated by inducing membrane voltage changes by applying electric fields. The electrical stimulation instrument and methods of use are described in Ion Channel Assay Methods PCT/US01/21652, herein incorporated by reference and are referred to as E-VIPR. The instrument comprises a microtiter plate handler, an optical system for exciting the coumarin dye while simultaneously recording the coumarin and oxonol emissions, a waveform generator, a current- or voltage-controlled amplifier, and a device for inserting electrodes in well. Under integrated computer control, this instrument passes user-programmed electrical stimulus protocols to cells within the wells of the microtiter plate.
24 hours before the assay on E-VIPR, HEK cells expressing human NaV subtype, like NaV 1.7, are seeded in 384-well poly-lysine coated plates at 15,000-20,000 cells per well. Other subtypes are performed in an analogous mode in a cell line expressing the NaV of interest. HEK cells are grown in media (exact composition is specific to each cell type and NaV subtype) supplemented with 10% FBS (Fetal Bovine Serum, qualified; GibcoBRL #16140-071) and 1% Pen-Strep (Penicillin-Streptomycin; GibcoBRL #15140-122). Cells are grown in vented cap flasks, in 90% humidity and 10% CO2, to 100% confluence. They are usually split by trypsinization 1:10 or 1:20, depending on scheduling needs, and grown for 2-3 days before the next split.
• 100 mg/mL Pluronic F-127 (Sigma #P2443), in dry DMSO • Compound Plates: 384-well round bottom plate, e.g. Corning 384-well Polypropylene Round Bottom #3656 • Cell Plates: 384-well tissue culture treated plate, e.g. Greiner #781091-1B • 10 mM DiSBAC6(3) (Aurora #00-100-010) in dry DMSO • 10 mM CC2-DMPE (Aurora #00-100-008) in dry DMSO • 200 mM ABSC1 in H2O
Bath1 buffer. Glucose 10 mM (1.8 g/L), Magnesium Chloride (Anhydrous), 1 mM (0.095 g/L), Calcium Chloride, 2 mM (0.222 g/L), HEPES 10 mM (2.38 g/L), Potassium Chloride, 4.5 mM (0.335 g/L), Sodium Chloride 160 mM (9.35 g/L).
Hexyl Dye Solution: Bath1 Buffer+0.5% β-cyclodextrin (make this prior to use, Sigma #C4767), 8 μM CC2-DMPE+2.5 μM DiSBAC6(3). To make the solution Add volume of 10% Pluronic F127 stock equal to volumes of CC2-DMPE+DiSBAC6(3). The order of preparation is first mix Pluronic and CC2-DMPE, then add DiSBAC6(3) while vortexing, then add Bath1+β-Cyclodextrin.
1) Pre-spot compounds (in neat DMSO) into compound plates. Vehicle control (neat DMSO), the positive control (20 mM DMSO stock tetracaine, 125 μM final in assay) and test compounds are added to each well at 160× desired final concentration in neat DMSO. Final compound plate volume will be 80 μL (80-fold intermediate dilution from 1 μL DMSO spot; 160-fold final dilution after transfer to cell plate). Final DMSO concentration for all wells in assay is 0.625%.
2) Prepare Hexyl Dye Solution.
3) Prepare cell plates. On the day of the assay, medium is aspirated and cells are washed three times with 100 μL of Bath1 Solution, maintaining 25 μL residual volume in each well.
4) Dispense 25 μL per well of Hexyl Dye Solution into cell plates. Incubate for 20-35 minutes at room temp or ambient conditions.
5) Dispense 80 μL per well of Bath1 into compound plates. Acid Yellow-17 (1 mM) is added and Potassium Chloride can be altered from 4.5 to 20 mM depending on the NaV subtype and assay sensitivity.
6) Wash cell plates three times with 100 μL per well of Bath1, leaving 25 μL of residual volume. Then transfer 25 uL per well from Compound Plates to Cell Plates. Incubate for 20-35 minutes at room temp/ambient condition
7) Read Plate on E-VIPR. Use the current-controlled amplifier to deliver stimulation wave pulses for typically 9 seconds and a scan rate of 400 Hz. A pre-stimulus recording is performed for 0.5 seconds to obtain the un-stimulated intensities baseline. […]

T1 sequence (Q15858 whole entry): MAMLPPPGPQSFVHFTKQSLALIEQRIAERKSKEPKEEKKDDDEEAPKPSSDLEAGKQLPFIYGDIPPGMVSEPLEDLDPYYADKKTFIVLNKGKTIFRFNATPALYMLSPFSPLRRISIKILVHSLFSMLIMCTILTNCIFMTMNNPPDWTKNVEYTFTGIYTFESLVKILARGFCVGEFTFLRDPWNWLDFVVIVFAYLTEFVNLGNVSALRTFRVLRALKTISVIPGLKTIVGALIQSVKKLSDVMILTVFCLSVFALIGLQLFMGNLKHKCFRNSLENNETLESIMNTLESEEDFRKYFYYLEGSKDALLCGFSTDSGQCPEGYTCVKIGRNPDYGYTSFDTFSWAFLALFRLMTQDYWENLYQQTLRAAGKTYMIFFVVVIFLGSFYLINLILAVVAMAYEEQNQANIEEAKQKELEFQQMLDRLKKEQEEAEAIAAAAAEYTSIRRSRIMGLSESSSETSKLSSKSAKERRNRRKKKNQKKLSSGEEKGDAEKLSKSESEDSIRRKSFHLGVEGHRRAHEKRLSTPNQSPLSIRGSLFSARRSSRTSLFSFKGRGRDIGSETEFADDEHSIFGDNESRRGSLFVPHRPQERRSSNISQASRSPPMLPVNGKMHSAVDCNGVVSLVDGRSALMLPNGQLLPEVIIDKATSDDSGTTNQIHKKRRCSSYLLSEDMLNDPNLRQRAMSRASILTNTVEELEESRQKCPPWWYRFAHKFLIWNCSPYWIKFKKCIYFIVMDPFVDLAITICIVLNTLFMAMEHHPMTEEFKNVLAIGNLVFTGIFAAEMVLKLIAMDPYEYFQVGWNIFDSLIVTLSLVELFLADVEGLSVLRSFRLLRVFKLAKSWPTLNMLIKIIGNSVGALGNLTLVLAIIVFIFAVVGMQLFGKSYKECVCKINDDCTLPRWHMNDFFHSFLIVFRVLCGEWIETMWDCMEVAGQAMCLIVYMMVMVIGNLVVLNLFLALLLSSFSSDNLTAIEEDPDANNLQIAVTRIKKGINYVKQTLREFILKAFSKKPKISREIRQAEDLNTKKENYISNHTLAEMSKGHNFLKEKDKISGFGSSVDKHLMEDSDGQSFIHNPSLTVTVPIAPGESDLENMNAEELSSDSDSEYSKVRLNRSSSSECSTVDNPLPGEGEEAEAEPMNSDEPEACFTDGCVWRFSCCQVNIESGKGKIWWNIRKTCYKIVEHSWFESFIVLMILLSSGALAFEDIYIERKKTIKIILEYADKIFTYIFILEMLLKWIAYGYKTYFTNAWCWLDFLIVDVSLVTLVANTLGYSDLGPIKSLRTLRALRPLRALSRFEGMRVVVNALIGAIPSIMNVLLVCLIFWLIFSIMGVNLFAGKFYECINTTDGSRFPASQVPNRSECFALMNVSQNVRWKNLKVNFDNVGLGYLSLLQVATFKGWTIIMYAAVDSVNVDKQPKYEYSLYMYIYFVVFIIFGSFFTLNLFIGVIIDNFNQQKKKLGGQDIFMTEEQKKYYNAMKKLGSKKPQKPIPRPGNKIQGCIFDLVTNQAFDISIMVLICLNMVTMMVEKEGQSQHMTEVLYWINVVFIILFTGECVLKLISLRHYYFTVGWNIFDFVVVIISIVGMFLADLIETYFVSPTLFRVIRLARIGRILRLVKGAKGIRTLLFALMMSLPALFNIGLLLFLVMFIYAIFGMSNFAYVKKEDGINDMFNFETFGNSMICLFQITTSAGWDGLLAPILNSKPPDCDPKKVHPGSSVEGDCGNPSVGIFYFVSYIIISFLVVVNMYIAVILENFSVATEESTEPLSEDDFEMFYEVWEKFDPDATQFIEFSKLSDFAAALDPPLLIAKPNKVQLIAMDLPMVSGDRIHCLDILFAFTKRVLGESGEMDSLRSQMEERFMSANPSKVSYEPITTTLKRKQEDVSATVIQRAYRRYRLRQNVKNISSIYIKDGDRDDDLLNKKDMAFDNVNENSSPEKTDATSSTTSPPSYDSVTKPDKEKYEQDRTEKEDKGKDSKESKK

SMILES	IC50
COc1cc(C(=O)N2CC[C@]3(c4ncccc4F)OCOC3C2)ccc1OCC1CC(F)(F)C1 (stereo partly drawn) [Compound 1]	≤ 2 µM
Cc1cc(C(=O)N2CC[C@]3(c4cc(C(F)(F)F)ccn4)OCOC3C2)ccc1OCC(C)(C)F (stereo partly drawn) [Compound 2]	≤ 2 µM
COc1ccnc([C@]23CCN(C(=O)c4ccc(OCC(F)(F)C(F)F)c(OC)c4)CC2OCO3)c1 (stereo partly drawn) [Compound 3]	≤ 2 µM
COc1cc(C(=O)N2CC[C@]3(c4cc(F)cc(F)c4)OCOC3C2)ccc1OCCOC(F)(F)F (stereo partly drawn) [Compound 4]	≤ 2 µM
Cc1cc(C(=O)N2CC[C@]3(c4ncccn4)OCOC3C2)ccc1OC(C)C (stereo partly drawn) [Compound 5]	> 5 µM
COc1cc(C(=O)N2CC[C@@]3(c4nccs4)OCOC3C2)ccc1OCC(C)(C)F (stereo partly drawn) [Compound 6]	> 5 µM
COc1cc(C(=O)N2CC[C@]3(c4ncccn4)OCOC3C2)ccc1OCC(C)(C)F (stereo partly drawn) [Compound 7]	> 5 µM
COc1cc(C(=O)N2CC[C@@]3(c4ccccc4)OCOC3C2)ccc1OCC(C)(C)O (stereo partly drawn) [Compound 8]	> 5 µM
O=C(c1ccc(O)c(Cl)c1)N1CC[C@]2(c3ccccn3)OCOC2C1 (stereo partly drawn) [Compound 9]	> 5 µM
CC(C)Oc1ccc(C(=O)N2CCC3(c4ccccc4)CC3C2)cn1 (stereo not drawn) [Compound 10]	> 5 µM
COc1c(F)cccc1C(=O)N1CCC2(c3ccccc3)CC2C1 (stereo not drawn) [Compound 11]	> 5 µM
COc1cc(C(=O)N2CC[C@]3(c4ncccn4)OCOC3C2)ccc1OCCOC(F)(F)F (stereo partly drawn) [Compound 12]	> 5 µM
Cc1cc(C(=O)N2CCC3(c4ccccc4)OCC3C2)ccc1OC(C)C (stereo not drawn) [Compound 13]	> 5 µM
COc1ccc(C(=O)N2CCC3(c4ccccc4)CC3C2)nc1C (stereo not drawn) [Compound 14]	2 to 5 µM
CCS(=O)(=O)c1ccc(C(=O)N2CCC3(c4ccccc4)CC3C2)cc1C (stereo not drawn) [Compound 15]	2 to 5 µM
CC(C)Oc1ccc(C(=O)N2CCC3(c4ccccc4)CC3C2)cc1F (stereo not drawn) [Compound 16]	2 to 5 µM

SMILES	IC50
CC(C)(O)COc1ccc(C(=O)N2CC[C@@]3(c4nccs4)OCOC3C2)cc1Cl (stereo partly drawn) [Compound 17]	2 to 5 µM
Cc1cc(C(=O)N2CCC3(c4ccccc4)CC3C2)cnc1OC(C)C (stereo not drawn) [Compound 18]	2 to 5 µM
CC(C)Oc1ccc(C(=O)N2CCC3(c4ccccc4)CC3C2)c(F)c1 (stereo not drawn) [Compound 19]	2 to 5 µM
O=C(c1cccc2c1OCC2)N1CCC2(c3ccccc3)CC2C1 (stereo not drawn) [Compound 20]	2 to 5 µM
CC(C)COc1ccc(C(=O)N2CCC3(c4ccccc4)CC3C2)nc1 (stereo not drawn) [Compound 21]	2 to 5 µM
CC(C)(O)COc1ccc(C(=O)N2CC[C@]3(c4nccs4)OCOC3C2)cc1Cl (stereo partly drawn) [Compound 22]	2 to 5 µM
COc1cc(C(=O)N2CC[C@]3(c4ccccn4)OCOC3C2)ccc1OCC(C)(C)F (stereo partly drawn) [Compound 23]	2 to 5 µM
COc1cc(C(=O)N2CC[C@]3(c4nccs4)OCOC3C2)ccc1OCC(C)(C)F (stereo partly drawn) [Compound 24]	2 to 5 µM
Cc1cc(C(=O)N2CC[C@]3(c4ccccn4)OCOC3C2)ccc1OCC(C)(C)O (stereo partly drawn) [Compound 25]	2 to 5 µM
O=C(c1ccc(S(=O)(=O)NC2CC2)cc1)N1CCC2(c3ccccc3)CC2C1 (stereo not drawn) [Compound 26]	2 to 5 µM
Cc1cc(C(=O)N2CC[C@]3(c4ncccn4)OCOC3C2)ccc1OCC(C)(C)F (stereo partly drawn) [Compound 27]	≤ 2 µM
O=C(c1ccc(C2(O)CCC2)cc1)N1CCC2(c3ccccc3)CC2C1 (stereo not drawn) [Compound 28]	≤ 2 µM
CC(C)(O)c1ccc(C(=O)N2CCC3(c4ccccc4)CC3C2)cc1 (stereo not drawn) [Compound 29]	≤ 2 µM
Cc1cc(C(=O)N2CC[C@@]3(c4nccs4)OCOC3C2)ccc1OCC(C)(C)O (stereo partly drawn) [Compound 30]	≤ 2 µM
Cc1cc(C(=O)N2CC[C@]3(c4nccs4)OCOC3C2)ccc1OCC(C)(C)O (stereo partly drawn) [Compound 31]	≤ 2 µM

Now from value to compound:

IC50	SMILES
≤ 2 µM	COc1cc(C(=O)N2CC[C@]3(c4ccc(F)cc4)OCOC3C2)ccc1COCCC(F)(F)F (stereo partly drawn) [Compound 32]
≤ 2 µM	O=C(c1cccc2cccnc12)N1CCC2(c3ccccc3)OCC2C1 (stereo not drawn) [Compound 33]
≤ 2 µM	COc1cccnc1[C@]12CCN(C(=O)c3ccc(OCC(C)(C)F)c(C)c3)CC1OCO2 (stereo partly drawn) [Compound 34]
≤ 2 µM	CC(C)Oc1ccc(C(=O)N2CCC3(c4ccccc4)CC3C2)cc1C#N (stereo not drawn) [Compound 35]
≤ 2 µM	COc1cc(C(=O)N2CC[C@@]3(c4ccccc4)OCOC3C2)ccc1OCC(C)(C)F (stereo partly drawn) [Compound 36]
≤ 2 µM	CC(C)(O)Cc1ccc(C(=O)N2CCC3(c4ccccc4)CC3C2)cc1F (stereo not drawn) [Compound 37]
≤ 2 µM	COc1cc(C(=O)N2CC[C@]3(c4ccc(F)cc4)OCOC3C2)ccc1OCC(C)(C)F (stereo partly drawn) [Compound 38]
> 5 µM	COc1cc(C(=O)N2CC[C@]3(c4cscn4)OCOC3C2)ccc1OCCOC(F)(F)F (stereo partly drawn) [Compound 39]
≤ 2 µM	COc1cc(C(=O)N2CC[C@]3(c4ccccn4)OCOC3C2)cc(F)c1OCCC(F)(F)F (stereo partly drawn) [Compound 40]
≤ 2 µM	COc1cc(C(=O)N2CC[C@]3(c4ncccc4OC)OCOC3C2)ccc1OCCOC(F)(F)F (stereo partly drawn) [Compound 41]
≤ 2 µM	COc1cc(C(=O)N2CC[C@]3(c4ccccc4)OCOC3C2)ccc1OCC(C)(C)O (stereo partly drawn) [Compound 42]
2 to 5 µM	O=C(c1cccc2cccnc12)N1CC[C@@]2(c3ccccc3)OCOC2C1 (stereo partly drawn) [Compound 43]
≤ 2 µM	Cc1cc(C(=O)N2CCC3(c4ccc(F)cc4)CC3C2)ccc1OCC(C)(C)O (stereo not drawn) [Compound 44]
≤ 2 µM	Cc1cc(C(=O)N2CC[C@]3(c4ccccc4)OCOC3C2)ccc1C(C)(C)O (stereo partly drawn) [Compound 45]
≤ 2 µM	COc1cc(C(=O)N2CC[C@@]3(c4ccn(C)n4)OCOC3C2)ccc1OCCOC(F)(F)F (stereo partly drawn) [Compound 46]
≤ 2 µM	COc1cc(C(=O)N2CC[C@@]3(c4ccc(F)cc4)OCOC3C2)ccc1OCC(C)(C)F (stereo partly drawn) [Compound 47]
≤ 2 µM	COc1cc(C(=O)N2CC[C@@]3(c4ccc(F)cc4)OCOC3C2)ccc1COCCC(F)(F)F (stereo partly drawn) [Compound 48]
> 5 µM	Cc1cc(C(=O)N2CC[C@@]3(c4ccccc4)OCOC3C2)ccc1C(C)(C)O (stereo partly drawn) [Compound 49]
≤ 2 µM	COc1cc(C(=O)N2CC[C@]3(c4ccccn4)OCOC3C2)ccc1COCC(F)(F)F (stereo partly drawn) [Compound 50]
2 to 5 µM	O=C(c1ccc2c(c1)OCC(COC(F)(F)F)O2)N1CC[C@]2(c3ccccc3)OCOC2C1 (stereo partly drawn) [Compound 51]
2 to 5 µM	Cc1cc(C(=O)N2CC[C@]3(c4cscn4)OCOC3C2)ccc1OCC(C)(C)F (stereo partly drawn) [Compound 52]
≤ 2 µM	Cc1cc(C(=O)N2CC[C@]3(c4ccc(F)cc4)OCOC3C2)ccc1OCC(C)(C)O (stereo partly drawn) [Compound 53]
≤ 2 µM	O=C(c1ccc2c(c1)OCC(COC(F)(F)F)O2)N1CC[C@@]2(c3ccccc3)OCOC2C1 (stereo partly drawn) [Compound 54]
≤ 2 µM	COc1cc(C(=O)N2CCC3(c4ccccc4)OCC3C2)ccc1OCCOC(F)(F)F (stereo not drawn) [Compound 55]
≤ 2 µM	Cc1nc(C(=O)N2CCC3(c4ccccc4)OCC3C2)ccc1OC(C)C (stereo not drawn) [Compound 56]
> 5 µM	CC(C)(O)c1ccc(C(=O)N2CCC3(c4ccccc4)CC3C2)cc1F (stereo not drawn) [Compound 57]
